Laboratory results from article PMC9820646, “Identification and Pharmacological Characterization of Two Serotonin Type 7 Receptor Isoforms from Mythimna separata” (International Journal of Molecular Sciences, 2022).
Structures can show the parent of a compound that is named as a salt. Where two headings read alike, the source gives them in different places.

Tests used:
[1] = target: T1, Msep5-HT7L receptor (Mythimna separata, UniProt A0AAD7YHG5); experiment: cAMP assay, agonist activation of Msep5-HT7L in stably transfected HEK293 cells; assay type: cell-based; parameters: Emax: dose or concentration left out as unconfirmed; conditions: for effect on intracellular cAMP levels: 10 μM, HEK293 cells expressing Msep5-HT7L; for Emax: HEK293, read-out: activation compared with maximum cAMP stimulation by same concentration of 5-HT
T1 sequence (A0AAD7YHG5 entry or part of it): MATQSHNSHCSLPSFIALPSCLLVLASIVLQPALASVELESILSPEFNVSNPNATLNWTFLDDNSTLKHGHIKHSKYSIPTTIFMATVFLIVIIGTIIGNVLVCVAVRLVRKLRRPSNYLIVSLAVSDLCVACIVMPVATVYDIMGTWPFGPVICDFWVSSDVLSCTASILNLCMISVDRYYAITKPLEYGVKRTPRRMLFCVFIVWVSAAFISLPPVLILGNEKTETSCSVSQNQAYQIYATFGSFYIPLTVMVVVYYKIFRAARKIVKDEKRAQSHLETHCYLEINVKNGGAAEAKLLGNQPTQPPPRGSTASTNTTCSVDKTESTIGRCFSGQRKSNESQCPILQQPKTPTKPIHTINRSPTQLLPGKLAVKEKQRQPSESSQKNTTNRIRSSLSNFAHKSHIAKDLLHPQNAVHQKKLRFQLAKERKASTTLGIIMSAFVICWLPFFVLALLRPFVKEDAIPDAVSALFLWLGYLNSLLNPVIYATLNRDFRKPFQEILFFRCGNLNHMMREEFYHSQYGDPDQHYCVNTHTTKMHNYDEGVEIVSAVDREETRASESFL
Experimental: (§1) HEK-293 cells were cultured in D-MEM (Gibco BRL, Gaithersburg, MD, USA) supplemented with 10% FBS (Gibco BRL, Gaithersburg, MD, USA) at 37 °C and 5% CO2. Four microgram recombinant plasmids with 10 μL of lipofectamine 2000 (Invitrogen, Carlsbad, CA, USA) were introduced into exponentially growing HEK 293 cells. The 0.8 mg/mL antibiotic G418 (Sigma, St. Louis, MO, USA) was added to the medium to select for cells that were stably expressed the Msep5-HT7 receptors. After fourteen days of G418 selection, three G418-resistant colonies were trypsinized in cloning cylinders and transferred to 12-well plastic plates for expansion.
(§2) Intracellular cAMP concentrations were measured as previously described. Briefly, when cells were cultured for 2 days to the concentration of 1 × 10^6 cells/mL, culture media were removed and the cells were washed two times with cold PBS (pH 7.4), then the cells were preincubated in 450 μL of Dulbecco’s phosphate-buffered solution (DPBS) containing 100 μM phosphodiesterase inhibitor 3-isobutyl-1-methylxanthine (IBMX) for 20 min at room temperature. After the preincubation, 50 μL of DPBS, containing various concentrations of reagents, was added into the stable transfected cells for incubation for 30 min at 37 °C. The cells were washed three times with cold PBS (pH 7.4) and then lysed in 250 μL of cold cell lysis buffer by re-freezing. The cell debris was removed by centrifugation at 600× g for 10 min at 4 °C. The amount of intracellular cAMP extracted from harvested supernatant was determined using an ELISA reagent (R&D Systems, Minneapolis, MN, USA). Each measurement was performed in duplicate, and three independent assays were carried out for each reagent and concentration tested.

[2] = target: T2, Msep5-HT7S receptor (Mythimna separata, UniProt A0AAD7YHG5, DEL320-414); experiment: cell-based; assay type: cell-based; parameters: Emax: dose or concentration left out as unconfirmed; conditions: for effect on intracellular cAMP levels: 10 μM, HEK293 cells expressing Msep5-HT7S; for fold higher agonist potency against Msep5-HT7S than Msep5-HT7L: ratio of EC50 values; for Emax: HEK293, read-out: activation compared with maximum cAMP stimulation by 5-HT
T2 sequence (A0AAD7YHG5 entry or part of it DEL320-414): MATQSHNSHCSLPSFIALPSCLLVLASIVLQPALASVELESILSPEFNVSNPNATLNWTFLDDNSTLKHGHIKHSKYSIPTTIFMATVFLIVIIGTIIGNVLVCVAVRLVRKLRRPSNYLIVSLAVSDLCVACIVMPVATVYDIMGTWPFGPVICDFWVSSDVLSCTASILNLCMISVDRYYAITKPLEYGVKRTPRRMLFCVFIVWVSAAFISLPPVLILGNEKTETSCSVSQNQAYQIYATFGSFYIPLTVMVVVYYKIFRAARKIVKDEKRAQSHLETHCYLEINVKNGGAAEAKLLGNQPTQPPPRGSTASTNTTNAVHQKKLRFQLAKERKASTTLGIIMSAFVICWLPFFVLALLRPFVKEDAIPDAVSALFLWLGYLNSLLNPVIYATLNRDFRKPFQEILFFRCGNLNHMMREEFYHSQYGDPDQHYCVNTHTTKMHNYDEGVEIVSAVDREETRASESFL
Experimental: as §1, §2

[3] = test system: 5-HT7 receptor; conditions: 5-HT7 receptor from T. castaneum; ref [36]; cited from earlier work
[4] = target: T1, Msep5-HT7L receptor; experiment: cAMP assay, antagonist block of 5-HT-induced response in HEK293 cells expressing Msep5-HT7L; assay type: cell-based; conditions: against 5 μM 5-HT
Experimental: as §1, §2

[5] = test system: Msep5-HT7L receptor; experiment: as above; assay type: cell-based; conditions: for decrease of 5-HT induced response: 40 μM antagonist (8-fold) with 5 μM 5-HT, range stated for all antagonists and both isoforms; for antagonist potency or efficacy, Msep5-HT7L compared with Msep5-HT7S: inhibition of 5-HT-induced cAMP production, based on 95% fiducial limits
Experimental: as §1, §2

[6] = target: T2, Msep5-HT7S receptor; experiment: cAMP assay, antagonist block of 5-HT-induced response in HEK293 cells expressing Msep5-HT7S; assay type: cell-based
Experimental: as §1, §2

[7] = test system: Msep5-HT7L receptor; experiment: cAMP assay, agonist activation of Msep5-HT7L in stably transfected HEK293 cells; assay type: cell-based, Mythimna separata; parameters: Emax: dose or concentration left out as unconfirmed; conditions: ratio of EC50 values
Experimental: as §1, §2

[8] = EC50, 5-HT7L, cAMP production, HEK-293 cells
[9] = logEC50 (Mean ± SEM), 5-HT7L, cAMP production, HEK-293 cells, given as negative log value
[10] = EC50, 5-HT7S, cAMP production, HEK-293 cells
[11] = logEC50 (Mean ± SEM), 5-HT7S, cAMP production, HEK-293 cells, given as negative log value

Structure (SMILES) | effect on intracellular cAMP levels [1] | effect on intracellular cAMP levels [2] | fold higher agonist potency against Msep5-HT7S than Msep5-HT7L [2] | efficacy fold lower than 5-HT [3] | potency fold lower than 5-HT [3] | EC50 [1, 8] [µM] | Emax [1] [%] | EC50 [1, 9] [µM] | EC50 [2, 10] [µM] | Emax [2] [%] | EC50 [2, 11] [µM] | decrease of 5-HT induced response [5] | antagonist potency or efficacy, Msep5-HT7L compared with Msep5-HT7S [5] | other results
CC(N)Cc1c[nH]c2ccc(O)cc12.O=C(O)/C=C\C(=O)O (stereo not drawn) [αm-5-HT, α-methylserotonin maleate] | activated | significantly increased cAMP levels | 2.3 fold | about 2 fold | more than 190 fold |  |  |  |  |  |  |  |  | logEC50 (Mean ± SEM) ([1]; 5-HT7L, cAMP production, HEK-293 cells, given as negative log value): −4.86 ± 0.04; EC50 ([1]; 5-HT7L, cAMP production, HEK-293 cells, read-out: EC50): 13.9 µM; activation compared with maximum cAMP stimulation by same concentration of 5-HT ([1]; highest concentration 1 mM, Msep5-HT7L): about 69%; activation compared with maximum cAMP stimulation by 5-HT [2]: about 35%; logEC50 (Mean ± SEM) ([2]; 5-HT7S, cAMP production, HEK-293 cells, given as negative log value): −5.23 ± 0.29; EC50 ([2]; 5-HT7S, cAMP production, HEK-293 cells, read-out: EC50): 5.9 µM
NCCc1c[nH]c2ccc(O)cc12 [5-HT, serotonin hydrochloride] | significantly increased cAMP levels | significantly increased cAMP levels |  |  |  |  |  |  |  |  |  |  |  | 
COc1ccc2[nH]cc(CCN)c2c1 [5-MT, 5-methoxytryptamine] | activated | only αm-5-HT significantly increased cAMP levels | roughly equivalent | about 2 fold | more than 190 fold | 20.9 | ~69 | 20.9 | 19.4 | ~35 | 19.5 |  |  | 
COc1ccccc1N1CCN(CCN(C(=O)C2CCCCC2)c2ccccn2)CC1 [WAY-100635] |  |  |  |  |  |  |  |  |  |  |  | 33–60% | higher antagonistic activity | IC50 ([4]; 5-HT7L, HEK-293 cells, read-out: IC50): 36.1 µM; logIC50 (Mean ± SEM) ([4]; 5-HT7L, given as negative log value): −4.44 ± 0.04; IC50 ([6]; 5-HT7S, against 5 μM 5-HT, HEK-293 cells, read-out: IC50): 70.3 µM; logIC50 (Mean ± SEM) ([6]; 5-HT7S, against 5 μM 5-HT, given as negative log value): −4.15 ± 0.02; IC50 [3]: 76.8 µM
CCCN(CCC)C1CCc2cccc(O)c2C1 (racemic) [8-OH-DPAT, (±)-8-hydroxy-2-(dipropylamino) tetralin hydrobromide] | activated | only αm-5-HT significantly increased cAMP levels |  | about 2 fold | more than 190 fold | 10.1 | < 30 | 10 | 24.8 | < 30 | 24.5 |  |  | fold higher agonist potency against Msep5-HT7L than Msep5-HT7S [7]: 2.4 fold
Cc1cccc(S(=O)(=O)N(C)[C@H](C)CCN2CCC(C)CC2)c1 [SB-258719] |  |  |  |  |  |  |  |  |  |  |  | 33–60% | no significant differences | IC50 ([4]; IC50, 5-HT7L, HEK-293 cells): 55.3 µM; IC50 ([4]; logIC50 (Mean ± SEM), 5-HT7L, given as negative log value): 55 µM; inhibition at 40 µM ([6]; HEK293, read-out: decrease of 5-HT induced response): 33 to 60%; IC50 ([6]; IC50, 5-HT7S, against 5 μM 5-HT, HEK-293 cells): 64 µM; IC50 ([6]; logIC50 (Mean ± SEM), 5-HT7S, against 5 μM 5-HT, given as negative log value): 64.6 µM
